Experimental data taken from patent US20070009533A1 (priority 2005, published 2007).

Target: T1, MDR1 function in K562/R7 cells (Homo sapiens, UniProt P08183)
T1 construct: endogenous in cells; host or cells: K562/R7 cells
Type: cell-based
Procedure: The loaded and washed cells were cultured at 37° C. in 0.5 ml lacking or containing the indicated concentrations of drug for the indicated amount of time. Control cells were placed on ice immediately after loading and, as indicated by the symbol to the far right at MFI=1172, the cells had been loaded with dye.

T1 sequence (P08183 whole entry): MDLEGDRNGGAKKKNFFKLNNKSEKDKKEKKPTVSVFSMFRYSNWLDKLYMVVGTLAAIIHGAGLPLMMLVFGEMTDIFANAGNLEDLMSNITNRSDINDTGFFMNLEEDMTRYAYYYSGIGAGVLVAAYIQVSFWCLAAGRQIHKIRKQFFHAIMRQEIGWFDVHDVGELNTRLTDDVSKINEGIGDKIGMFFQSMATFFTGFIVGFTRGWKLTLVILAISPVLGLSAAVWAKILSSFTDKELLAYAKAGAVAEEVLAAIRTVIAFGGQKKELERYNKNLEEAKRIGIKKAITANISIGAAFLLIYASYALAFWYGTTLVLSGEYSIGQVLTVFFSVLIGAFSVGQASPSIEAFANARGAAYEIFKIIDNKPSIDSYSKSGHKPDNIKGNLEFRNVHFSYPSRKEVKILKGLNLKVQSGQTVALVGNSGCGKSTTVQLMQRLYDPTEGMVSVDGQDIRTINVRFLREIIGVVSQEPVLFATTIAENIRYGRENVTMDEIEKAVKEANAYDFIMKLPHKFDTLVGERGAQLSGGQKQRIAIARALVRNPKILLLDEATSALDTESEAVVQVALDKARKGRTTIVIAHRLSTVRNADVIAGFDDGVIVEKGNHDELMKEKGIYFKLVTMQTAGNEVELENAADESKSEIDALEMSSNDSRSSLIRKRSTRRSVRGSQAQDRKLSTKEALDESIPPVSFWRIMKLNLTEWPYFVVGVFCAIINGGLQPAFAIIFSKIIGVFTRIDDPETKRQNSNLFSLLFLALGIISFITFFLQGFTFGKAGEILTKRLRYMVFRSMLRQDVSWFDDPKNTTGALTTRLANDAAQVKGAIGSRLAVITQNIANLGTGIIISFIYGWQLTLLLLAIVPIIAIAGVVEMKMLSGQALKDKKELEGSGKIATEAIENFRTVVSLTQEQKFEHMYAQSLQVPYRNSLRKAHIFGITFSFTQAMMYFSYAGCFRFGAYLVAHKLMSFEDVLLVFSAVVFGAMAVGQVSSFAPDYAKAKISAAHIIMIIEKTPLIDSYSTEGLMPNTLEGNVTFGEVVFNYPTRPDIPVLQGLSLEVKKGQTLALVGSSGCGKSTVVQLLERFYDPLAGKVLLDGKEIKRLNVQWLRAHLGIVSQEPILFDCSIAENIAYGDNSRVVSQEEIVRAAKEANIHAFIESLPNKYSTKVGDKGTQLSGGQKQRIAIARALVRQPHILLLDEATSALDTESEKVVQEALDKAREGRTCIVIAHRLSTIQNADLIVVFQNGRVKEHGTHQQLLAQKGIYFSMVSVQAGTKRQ

## O[C@@H](COc1cccc2ncccc12)CN1CCN([C@@H]2c3ccccc3[C@@H]3[C@H](c4ccccc42)C3(F)F)CC1 [zosuquidar]
  effect on dye release during efflux incubation: inhibited dye release in a concentration-dependent manner
